Laboratory results from US20040171073A1, “Compounds for modulation of cholesterol transport” (Massachusetts Institute of Technology, priority 2002, published 2004).

Molecular target: T1, murine SR-BI (Mus musculus, UniProt Q61009)
T1 construct: expressed in transfected cells; host or cells: ldlA-7 (LDL receptor deficient Chinese hamster ovary cells)
T1 sequence (Q61009 1-509): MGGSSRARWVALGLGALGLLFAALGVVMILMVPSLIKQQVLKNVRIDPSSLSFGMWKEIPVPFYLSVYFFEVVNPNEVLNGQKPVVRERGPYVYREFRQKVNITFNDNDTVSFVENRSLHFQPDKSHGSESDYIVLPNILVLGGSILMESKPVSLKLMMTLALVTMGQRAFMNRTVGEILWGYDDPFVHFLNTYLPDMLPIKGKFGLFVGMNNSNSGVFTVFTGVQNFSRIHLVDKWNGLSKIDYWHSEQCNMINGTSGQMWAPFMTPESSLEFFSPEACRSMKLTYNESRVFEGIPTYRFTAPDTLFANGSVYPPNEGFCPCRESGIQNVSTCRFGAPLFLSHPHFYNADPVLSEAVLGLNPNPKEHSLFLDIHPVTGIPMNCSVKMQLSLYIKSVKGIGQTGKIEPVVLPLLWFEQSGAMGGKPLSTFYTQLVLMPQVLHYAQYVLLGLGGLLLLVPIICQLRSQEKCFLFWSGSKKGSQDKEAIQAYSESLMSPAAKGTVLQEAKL
Test: Uptake of DiI from DiI-HDL by ldlA[mSR-BI] cells (high throughput screen and concentration dependence)
Assay type: cell-based

[1] = DiI uptake from DiI-HDL, compounds at nominal 10 micromolar, ldlA[mSR-BI] cells

| SMILES | ENDOHDL Test 1 | ENDOHDL Test 2 | ENDOHDL Test 1 [1] | ENDOHDL Test 2 [1] |
| --- | --- | --- | --- | --- |
| O=C(CC1=CCCCC1)Nc1cc([N+](=O)[O-])ccc1Cl [MIT 9952-46] | 1.32 | 1.18 | – | – |
| C=CC[n+]1c(C)n(CC)c2cc(Cl)c(Cl)cc21.[I-] [MIT 9952-169] | 0.54 | 0.6 | – | – |
| O=C(Cc1ccccc1)N/N=C/c1cccn1-c1ccc([N+](=O)[O-])cc1 [MIT 9952-123] | 0.59 | 0.64 | – | – |
| CC1CC2(C)CC(C(=O)O2)C1C(=O)OCCOc1ccccc1 (stereo not shown) [MIT 9952-109] | 1.19 | 1.75 | – | – |
| CCOC(=O)c1c(NC(=O)c2ccccc2C)sc2c1CCCC2 [MIT 9952-223] | 0.64 | 0.57 | – | – |
| CC(C)(C)c1ccc(C(=O)Nc2cccc(NC(=O)c3cccc([N+](=O)[O-])c3)c2)cc1 [MIT 9952-214] | 0.63 | 0.35 | – | – |
| Cc1c([N+](=O)[O-])cc(C(=O)Nc2cccc(-c3nc4ccccc4o3)c2)cc1[N+](=O)[O-] [MIT 9952-210] | 0.59 | 0.56 | – | – |
| COc1ccc(C(=O)Nc2ccc(I)cc2)cc1OC [MIT 9952-253] | 0.59 | 0.65 | – | – |
| Cc1nc(Cl)c(C(c2cc([N+](=O)[O-])ccc2Cl)c2c(Cl)nc(C)nc2Cl)c(Cl)n1 [MIT 9952-22] | 1.27 | 1.4 | – | – |
| O=C(CC1=CCCCC1)Nc1cc([N+](=O)[O-])ccc1O [MIT 9952-167] | 1.32 | 1.18 | – | – |
| O=C(Nc1cccc(C(F)(F)F)c1)c1cccc(C(=O)Nc2cccc(C(F)(F)F)c2)n1 [MIT 9952-189] | 0.56 | 0.58 | – | – |
| Cc1ccsc1/C=N/NC(=O)c1cccc([N+](=O)[O-])c1 [MIT 9952-228] | 0.46 | 0.63 | – | – |
| COc1ccc(OC)c(NC(=O)c2cc([N+](=O)[O-])c(C)c([N+](=O)[O-])c2)c1 [MIT 9952-233] | 0.59 | 0.33 | – | – |
| COc1ccc2c(c1)c(C(C)=O)c(C)n2-c1ccccc1 [MIT 9952-335] | – | – | 0.57 | 0.49 |
| O=C(Nc1cc2c(cc1C(=O)c1ccccc1)OCCO2)c1ccc(Br)cc1 [MIT 9952-188] | 0.61 | 0.58 | – | – |
| O=S(=O)([O-])C(F)(F)F.O=[N+]([O-])c1ccc([I+]c2ccc(F)cc2)cc1 [MIT 9952-241] | 0.48 | 0.52 | – | – |
| Nc1nc(N)nc(-c2cccc(-c3nc(N)nc(N)n3)c2)n1 [MIT 9952-173] | 1.96 | 1.61 | – | – |
| CN(C)c1ccc(C(Cl)(c2ccc(N(C)C)cc2)C2CN3CCC2CC3)cc1.Cl (stereo not shown) [MIT 9952-137] | 1.32 | 1.25 | – | – |
| CCSC(=O)C(NC1=C(C)C(=O)N1)c1ccccc1 (stereo not shown) [MIT 9952-292] | – | – | 0.47 | 0.58 |
| COc1cccc(C(=O)N/N=C/c2ccc(Cl)cc2Cl)c1 [MIT 9952-285] | – | – | 0.57 | 0.53 |
| O=C(O)CSC1CCCC/C1=N\Nc1ccc([N+](=O)[O-])cc1[N+](=O)[O-] (stereo not shown) [MIT 9952-84] | 0.74 | 0.66 | – | – |
| C/C(CS(=O)(=O)c1ccc(C)cc1)=N/NC(N)=S [MIT 9952-181] | 0.6 | 0.54 | – | – |
| CCS(=O)(=O)C(=C(Nc1ccc(OC)cc1)Nc1ccc(OC)cc1)S(=O)(=O)CC [MIT 9952-220] | 1.13 | 1.25 | – | – |
| COc1ccc([N+](=O)[O-])cc1NC(=O)c1ccccc1 [MIT 9952-338] | – | – | 0.61 | 0.6 |

| SMILES | ENDOHDL Test 1 | ENDOHDL Test 2 | ENDOHDL Test 1 [1] | ENDOHDL Test 2 [1] |
| --- | --- | --- | --- | --- |
| O=[N+]([O-])c1ccc(Cl)c(/C=N/c2ccc(S(=O)(=O)c3ccc(/N=C/c4cc([N+](=O)[O-])ccc4Cl)cc3)cc2)c1 [MIT 9952-139] | 1.22 | 1.39 | – | – |
| CCN(CC)S(=O)(=O)c1cc(C(=O)Nc2ccc(Br)cc2)ccc1Br [MIT 9952-192] | 0.57 | 0.52 | – | – |
| NSCc1nc(-c2ccc(Cl)cc2)no1 [MIT 9952-64] | 0.58 | 0.58 | – | – |
| CCCCN1CCC(Cl)(c2ccccc2)C(C(=O)c2ccccc2)C1 (stereo not shown) [MIT 9952-26] | 1.28 | 1.32 | – | – |
| Br.Oc1c(Br)cccc1CN(Cc1cc(Br)cc(Br)c1O)C1CCCCC1 [MIT 9952-316] | – | – | 0.71 | 0.72 |
| O=C(Nc1cccc(Cl)c1)N1CCN(c2ccc([N+](=O)[O-])cc2)CC1 [MIT 9952-256] | 0.65 | 0.92 | – | – |
| CO/C(=N\C(NC(=S)Nc1ccccc1)C(Cl)(Cl)Cl)c1ccc(C)cc1 (stereo not shown) [MIT 9952-203] | 0.73 | 0.7 | – | – |
| CCNc1ccc(N)c(C)c1C.O=S(=O)(O)O [MIT 9952-74] | 0.71 | 0.69 | – | – |
| CCCCCCC1CCC/C1=N\NC(N)=S (stereo not shown) [MIT 9952-185] | 0.53 | 0.46 | – | – |
| Cc1ccc(C(C)C)c(OCC(=O)Nc2cc([N+](=O)[O-])ccc2C)c1 [MIT 9952-153] | 0.6 | 0.57 | – | – |
| C=CCN1C(=O)[C@H]2Cc3c([nH]c4ccccc34)[C@@H](c3ccc4c(c3)OCO4)N2C1=S [MIT 9952-179] | 0.54 | 0.54 | – | – |
| O=C1CC(S/C(=N\c2ccccc2)Nc2ccccc2)C(=O)N1c1cccc2ccccc12 (stereo not shown) [MIT 9952-171] | 0.58 | 0.54 | – | – |
| C=CCc1c(C)nc(-c2ccccc2)nc1Nc1ccc([N+](=O)[O-])cc1 [MIT 9952-227] | 0.58 | 0.53 | – | – |
| Cc1cc(C)c(/C=N/N=C/c2c(C)cc(C)cc2C)c(C)c1 [MIT 9952-69] | 1.18 | 1.32 | – | – |
| C/C(=N\NC(=O)c1ccccc1)c1ccccc1C(=O)O [MIT 9952-242] | 1.26 | 1.26 | – | – |
| O=C(NC(NC(=S)Nc1cc(C(F)(F)F)ccc1Cl)C(Cl)(Cl)Cl)c1ccco1 (stereo not shown) [MIT 9952-90] | 0.62 | 0.61 | – | – |
| Cc1cc(C(=O)N/N=C\c2c(O)ccc3ccccc23)[nH]n1 [MIT 9952-150] | 0.34 | 0.52 | – | – |
| CC1(C)CC(=O)C(=Cc2c(Cl)ccc3ccccc23)C(=O)C1 [MIT 9952-157] | 1.26 | 1.21 | – | – |
| COc1ccc(/C=C2/S/C(=N/c3ccccc3)NC2=O)c(OC)c1 [MIT 9952-88] | 0.73 | 0.77 | – | – |
| C=CCN(CC=C)C(=O)Nc1ccccc1 [MIT 9952-251] | 0.52 | 0.57 | – | – |
| O=C(NC(NC(=S)Nc1ccc(Cl)cc1Cl)C(Cl)(Cl)Cl)c1ccco1 (stereo not shown) [MIT 9952-106] | 0.6 | 0.53 | – | – |
| O=C(Nc1ccc(C2Nc3ccc(SC(=O)c4ccc(Cl)cc4)c(Cl)c3S2)cc1)c1ccc(Cl)cc1 (stereo not shown) [MIT 9952-35] | 0.56 | 0.56 | – | – |
| CCn1c2ccccc2c2cc(/C=N/NC(N)=S)ccc21 [MIT 9952-211] | 0.59 | 0.56 | – | – |
